Experimental data as given in publication PMC103669 (BMC Pharmacology, 2002).

How the values were obtained:
[1] = target: T1, opossum alpha-2C adrenergic receptor (Didelphis virginiana, UniProt P35405); experiment: [3H]rauwolscine saturation binding, CHO membranes, filtration
T1 sequence (P35405 1-469): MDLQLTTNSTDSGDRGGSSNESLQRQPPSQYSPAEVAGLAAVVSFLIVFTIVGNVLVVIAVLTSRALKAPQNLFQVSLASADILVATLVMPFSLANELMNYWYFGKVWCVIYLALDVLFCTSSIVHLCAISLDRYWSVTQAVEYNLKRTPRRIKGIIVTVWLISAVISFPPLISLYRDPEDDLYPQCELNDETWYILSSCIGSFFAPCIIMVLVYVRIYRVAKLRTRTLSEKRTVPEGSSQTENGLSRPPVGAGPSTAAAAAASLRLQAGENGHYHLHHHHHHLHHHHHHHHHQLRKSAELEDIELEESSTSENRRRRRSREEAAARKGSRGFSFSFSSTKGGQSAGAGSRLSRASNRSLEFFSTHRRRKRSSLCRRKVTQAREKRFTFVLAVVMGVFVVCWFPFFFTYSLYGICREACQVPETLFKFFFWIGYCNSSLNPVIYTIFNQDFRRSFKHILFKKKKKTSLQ

[2] = target: opossum alpha-2C adrenergic receptor (Didelphis virginiana, UniProt P35405, S312A/T311V); experiment: biochemical
[3] = target: T2, opossum alpha-2C adrenergic receptor (Didelphis virginiana, UniProt P35405, S309A/S310A/S312A/T311V); experiment: biochemical
[4] = target: T2, opossum alpha-2C adrenergic receptor; experiment: biochemical; remark: listed apart in the source

T2 sequence (P35405 whole entry S309A/S310A/T311V/S312A): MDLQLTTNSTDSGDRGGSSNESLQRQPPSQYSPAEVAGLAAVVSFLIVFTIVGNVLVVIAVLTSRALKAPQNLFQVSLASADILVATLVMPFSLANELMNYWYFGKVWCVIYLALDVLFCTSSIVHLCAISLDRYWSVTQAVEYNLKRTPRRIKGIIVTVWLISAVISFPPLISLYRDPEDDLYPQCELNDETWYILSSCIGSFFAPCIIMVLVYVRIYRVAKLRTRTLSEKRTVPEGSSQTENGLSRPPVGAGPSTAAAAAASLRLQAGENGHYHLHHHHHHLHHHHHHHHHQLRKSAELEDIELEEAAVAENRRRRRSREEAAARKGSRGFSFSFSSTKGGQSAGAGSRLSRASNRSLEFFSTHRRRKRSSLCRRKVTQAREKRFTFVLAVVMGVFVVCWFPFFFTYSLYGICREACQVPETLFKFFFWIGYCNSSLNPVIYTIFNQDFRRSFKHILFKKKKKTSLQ
Sequence of opossum alpha-2C adrenergic receptor (Didelphis virginiana, UniProt P35405, S312A/T311V) (P35405 whole entry T311V/S312A): as the sequence (P35405 whole entry S309A/S310A/T311V/S312A) above, with A309S, A310S counted along it

Row | SMILES | Kd [1] [nM] | Kd [2] [nM] | Kd [3] [nM] | Ki [4] [nM]
1 | COC(=O)[C@H]1[C@H]2C[C@H]3c4[nH]c5ccccc5c4CCN3C[C@H]2CC[C@@H]1O [[^3H]rauwolscine] | 0.113 ± 0.008 | 0.105 ± 0.005 | 0.118 ± 0.012 | 
2 | NC[C@H](O)c1ccc(O)c(O)c1 [norepinephrine] |  |  |  | 71 ± 5
